How the values were obtained:
[1] = molecular target: T1, Recombinant human glycogen synthase kinase 3β (Homo sapiens, UniProt P49841); test: GSK-3β inhibition (radiometric 33P-ATP, GS-2 peptide substrate); type: biochemical; conditions: remaining GSK-3 activity
T1 construct: purchased Upstate 14-306
Method: This assay is based on the protocol detailed by Upstate Cat. 14-306, making some slight modifications.
Recombinant human glycogen synthase kinase 3β is assayed in MOPS 11 mM pH7.4, EDTA 0.2 mM, EGTA 1.25 mM, MgCl2 26.25 mM and sodium orthovanadate 0.25 mM in the presence of 62.5 μM of Phospho-Glycogen Synthase Peptide-2 (GS-2) (TOCRIS, Cat. 1352), 0.5 μCi γ-^33P-ATP and unlabelled ATP (Sigma, A-9187) at a final concentration of 12.5 μM. After incubation for 30 minutes at 30° C., aliquots are spotted onto P81 phosphocellulose papers. Filters are washed four times for at least 10 minutes each with 1% phosphoric acid and counted with scintillation cocktail in a scintillation counter (PerkinElmer, Microbeta 1450). The activity of GSK-3 is tested at concentrations of 25 and 50 μM, in the presence of the compound synthesized according to example 1 and in the presence of another 6 compounds of formula (I). The results obtained are indicated in Table I (see below), in the form of percentage of GSK-3 activity.

[2] = system: SH-SY5Y cells; test: Cell survival by LDH release in SH-SY5Y cells; type: cell-based
Method: In addition to tau phosphorylation assays, quantification of cell death due to potential toxicity of compounds 1 and 3 described above is made by measuring LDH release (Roche, Cat 1 644 793). For the quantitative determination of cell survival, aliquots of the cell lysate are incubated with an equal volume of reaction mixture at room temperature for 20-30 min. The measure of absorbance is made in a microtiter plate reader with 490-492 nm filter (Cultek, Anthos 2010).
For compounds 1 and 3, the cell survival was measured at 24 hours treatment (see Table 2), and for compound 2 was measured at 18 hours treatment (see Table 3), in SH-SY5Y cells. It is generally considered that a compound is considered toxic if less than 80% of the cells survive after treatment with a compound.

[3] = system: phosphorylated human Tau [pS396] in SHSY5Y cells; test: Inhibition of tau phosphorylation in SHSY5Y cells (Tau [pS396] sandwich ELISA); type: cell-based; design: key: “NEG” means no tau phosphorylation inhibition was detected at the referred concentration of compound (I); “POS” means that at the referred concentration tau phosphorylation inhibition was detected; conditions: 18 h
Method: Human neuroblastoma SHSY5Y cells were seeded in the presence of Minimum Essential Medium/Nutrient Mixture F-12. One day later, cells are treated with samples for 18 h at 37° C. After treatment, cultures are washed with phosphate-buffered saline and lysed for 30 min at 4° C. in extraction buffer (10 mM Tris-HCl, pH 7.4, 100 mM NaCl, 1 mM EDTA, 2 mM Na3VO4, 1% Triton X-100, 10% glycerol, 0.1% SDS, 0.5% Sodium deoxycholate, 1 mM PMSF and a protease inhibitor cocktail (Roche, Cat 1 697 498)).
The quantitative determination of phosphorylated human Tau is made taking aliquots of the cell lysate and using a phosphorylation-specific antibody against Tau [pS396] in a sandwich ELISA (Biosource, Cat KHB7031). Tau phosphorylation is estimated by measuring the absorbance at 450 nm in a microtiter plate reader (Cultek, Anthos 2010).
The effect of the synthesized compound according to example 1 and that of another 6 compounds of formula (I) is determined at different final concentrations, namely 50, 100 and 200 μM. Not all the compounds of formula (I) were tested at all the concentrations. The results are indicated in Table 1 (see below) as “NEG” and “POS”, respectively meaning “negative” and “positive”; “NEG” means no tau phosphorylation inhibition was detected at the referred concentration of compound (I); “POS” means that at the referred concentration tau phosphorylation inhibition was detected.

T1 sequence (P49841 whole entry): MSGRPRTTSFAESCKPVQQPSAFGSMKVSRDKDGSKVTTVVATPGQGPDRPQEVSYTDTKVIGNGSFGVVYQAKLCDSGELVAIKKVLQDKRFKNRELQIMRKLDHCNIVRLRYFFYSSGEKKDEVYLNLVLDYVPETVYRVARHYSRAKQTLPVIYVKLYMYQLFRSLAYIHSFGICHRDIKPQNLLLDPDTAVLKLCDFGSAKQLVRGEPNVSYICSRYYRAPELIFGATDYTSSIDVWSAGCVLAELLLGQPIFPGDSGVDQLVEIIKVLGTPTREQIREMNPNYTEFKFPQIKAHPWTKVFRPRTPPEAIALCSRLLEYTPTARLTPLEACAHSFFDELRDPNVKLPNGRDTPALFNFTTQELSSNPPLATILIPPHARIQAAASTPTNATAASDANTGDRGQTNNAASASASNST

% GSK-3 Activity ([1]; 25 μM compound) [%]	% GSK-3 Activity ([1]; 50 μM compound) [%]	SMILES	% of cell viability ([2]; 50 μM, 18 hours treatment) [%]	% of cell viability ([2]; 100 μM, 18 hours treatment) [%]	Tau phosphorylation inhibition in cells ([3]; 50 μM compound)	Tau phosphorylation inhibition in cells ([3]; 100 μM compound)	% of cell viability ([2]; 50 μM, 24 hours treatment) [%]	% of cell viability ([2]; 100 μM, 24 hours treatment) [%]
76.72	43.78	O=C(Nc1ncc([N+](=O)[O-])s1)c1ccccn1 [Compound 5]						
5.6	13.8	O=C(Cc1cccnc1)Nc1ncc(Cl)s1 [Compound 4]			NEG	POS		
13.73	8.05	O=C(Cc1ccccc1)Nc1ncc([N+](=O)[O-])s1 [Compound 7]			POS	POS		
22.29	50.90	O=C(Cc1cccnc1)Nc1nccs1 [Compound 6]						

SMILES	% GSK-3 Activity ([1]; 25 μM compound) [%]	% GSK-3 Activity ([1]; 50 μM compound) [%]	% of cell viability ([2]; 50 μM, 18 hours treatment) [%]	% of cell viability ([2]; 100 μM, 18 hours treatment) [%]	Tau phosphorylation inhibition in cells ([3]; 50 μM compound)	Tau phosphorylation inhibition in cells ([3]; 100 μM compound)	% of cell viability ([2]; 50 μM, 24 hours treatment) [%]	% of cell viability ([2]; 100 μM, 24 hours treatment) [%]
O=C(CCc1cccnc1)Nc1ncc([N+](=O)[O-])s1 [Compound 2]	8.3	5.36	95.7 ± 4.2	93.7 ± 7.1	POS	POS		
O=C(Cc1ccccn1)Nc1ncc([N+](=O)[O-])s1 [Compound 3]	9.49	4.1			NEG	POS	87 ± 6.0	85.4 ± 2.7
O=C(Cc1cccnc1)Nc1ncc([N+](=O)[O-])s1 [Compound 1, N-(5-Nitro-thiazol-2-yl)-2-pyridin-3-yl-acetamide]	5.21	2.78			POS	POS	94.1 ± 1.8	86.5 ± 4.7

Reference: patent publication US20090221647A1, “N-(2-THIAZOLYL)-AMIDE DERIVATIVES AS GSK-3 INHIBITORS” (NOSCIRA, S.A., priority 2006, published 2009)
